# Like-named read-outs stand apart in the source and are kept apart here. Non-standard residues stand in square brackets, D forms with d. Residues, ends and D or L forms follow the SMILES beside them.
# Experiments:
# C. lusitaniae “S” = assay: Susceptibility of Candida strains to antifungal drugs; type: cell-based; parameters: key to Susceptibility category: S: susceptible standard dosing regimen; R: resistant, therapeutic failure with increased exposure; I: susceptible increased exposure; conditions: strain C. lusitaniae “S”; for Susceptibility category: EUCAST breakpoints (CLSI for Caspofungin)
# C. albicans “S” = assay: as above; type: cell-based; parameters: key to Susceptibility category: S: susceptible standard dosing regimen; R: resistant, therapeutic failure with increased exposure; I: susceptible increased exposure; conditions: strain C. albicans “S”; for Susceptibility category: EUCAST breakpoints (CLSI for Caspofungin)
# Procedure: (§1) Strains of Candida albicans, Candida tropicalis and Candida glabrata, frequently found in cases of oral candidosis, were tested for L-bCtl and D-bCtl antimicrobial activity. The sensitive strain of C. albicans (ATCC 10231^TM) was provided by ATCC (Manassas, VA, USA). The resistant strain of C. albicans, the sensitive and resistant strains of C. tropicalis as well as the sensitive and resistant strains of C. glabrata were kindly provided by Dr Valérie Letscher-Bru (Laboratory of Parasitolology and Medical Mycology, Strasbourg, France).
# C. glabrata “S” = assay: as above; type: cell-based; parameters: key to Susceptibility category: S: susceptible standard dosing regimen; R: resistant, therapeutic failure with increased exposure; I: susceptible increased exposure; conditions: strain C. glabrata “S”; for Susceptibility category: EUCAST breakpoints (CLSI for Caspofungin)
# Procedure: as §1
# C. albicans “R” = assay: as above; type: cell-based; parameters: key to Susceptibility category: S: susceptible standard dosing regimen; R: resistant, therapeutic failure with increased exposure; I: susceptible increased exposure; conditions: strain C. albicans “R”; for Susceptibility category: EUCAST breakpoints (CLSI for Caspofungin)
# Procedure: as §1
# C. glabrata “R” = assay: as above; type: cell-based; parameters: key to Susceptibility category: S: susceptible standard dosing regimen; R: resistant, therapeutic failure with increased exposure; I: susceptible increased exposure; conditions: strain C. glabrata “R”; for Susceptibility category: EUCAST breakpoints (CLSI for Caspofungin)
# Procedure: as §1
# C. tropicalis “R” = assay: as above; type: cell-based; parameters: key to Susceptibility category: S: susceptible standard dosing regimen; R: resistant, therapeutic failure with increased exposure; I: susceptible increased exposure; conditions: strain C. tropicalis “R”; for Susceptibility category: EUCAST breakpoints (CLSI for Caspofungin)
# Procedure: as §1
# C. tropicalis “S” = assay: as above; type: cell-based; parameters: key to Susceptibility category: S: susceptible standard dosing regimen; R: resistant, therapeutic failure with increased exposure; I: susceptible increased exposure; conditions: strain C. tropicalis “S”; for Susceptibility category: EUCAST breakpoints (CLSI for Caspofungin)
# Procedure: as §1
# Candida glabrata “S” = type: cell-based; conditions: 24 h, pH 5.6
# Procedure: as §1
# (§2) Each Candida strain was first plated on agar plates and cultured for 24 h at 37 °C. After incubation, one colony per isolate was transferred into 5 mL of Sabouraud medium pH 5.6 (Sigma-Aldrich, Le Pont-de-Claix, France) supplemented with tetracycline (10 μg/mL) and cefotaxime (10 μg/mL) and incubated aerobically under agitation at 37 °C for 24 h. The resulting cultures were resuspended at an absorbance of 0.001 (OD600nm = 0.001) in Sabouraud medium. The OD600nm was evaluated with a spectrophotometer (BIO-RAD Smatspec^TM plus, Schiltigheim, France). In preliminary experiments, we tested RPMI-1640 culture and Sabouraud media. Similar data were obtained but the experiments were more reproducible with Sabouraud than with RPMI1640. Therefore, Sabouraud medium was used in the present study.
# (§3) The yeasts (OD600nm = 0.001) were then plated on 96-well microplates and treated with different concentrations of the peptides of interest. After 24 h incubation at 37 °C under agitation, yeast growth was assessed by optical density (OD600nm) using a microplate spectrophotometer (Multiscan EX, Thermo Fisher Scientific, Waltham, MA, USA). All tests were performed in triplicate. The MIC (minimal inhibitory concentration), defined as the lowest concentration of drug able to inhibit 100% of the growth of a pathogen, was determined for the different peptides against all previously described Candida strains, using a modified Gompertz model.
# Candida albicans “R” = type: cell-based; conditions: 24 h, pH 5.6
# Procedure: as §1, §2, §3
# Candida tropicalis “R” = type: cell-based; conditions: 24 h, pH 5.6
# Procedure: as §1, §2, §3
# [1] = system: Candida albicans “S” (ATCC 10231); type: cell-based; conditions: ATCC 10231, 24 h, pH 5.6
# Procedure: as §1, §2, §3
# Candida glabrata “R” = type: cell-based; conditions: 24 h, pH 5.6
# Procedure: as §1, §2, §3
# Candida tropicalis “S” = type: cell-based; conditions: 24 h, pH 5.6
# Procedure: as §1, §2, §3
# [2] = system: Candida albicans “S” (ATCC 10231); parameters: method as in Dartevelle et al. [28]; conditions: ref Dartevelle et al. [28], cited from earlier work; for MIC C. albicans “S”: values marked *, MIC = 100% growth inhibition
# “S” C. albicans = assay: Transmission electron microscopy of treated cells; type: cell-based, Candida albicans; conditions: 1 × MIC and 10 × MIC, 1 h at 37 °C
# Procedure: (§4) Precultures of sensitive and resistant Candida albicans strains were incubated for 2 h at 37 °C without shaking on glass bottom 24-well microplates previously treated with poly-L-lysine. The L-bCtl or D-bCtl peptides at concentrations of 1X MIC and 10X MIC were then added to the culture and incubated for 1 h at 37 °C with minimal shaking. The control samples correspond to the incubation of the different Candida albicans strains without any prior treatment. After 1 h incubation with or without each peptide of interest and a brief rinsing in 0.125 M cacodylate buffer, cells were fixed for 2 h 30 min in a 4% (v/v) glutaraldehyde buffered in 0.1 M sodium phosphate at pH 7.2. This step was followed with three 10 min washes in 0.1 M phosphate buffer at pH 7.2. Then the samples were post-fixed in a freshly prepared 2% (v/v) aqueous solution of potassium permanganate for 45 min at room temperature. The samples were washed three more times and dehydrated in graded series of ethanol of 7 min each. […]
# (§5) Ultrathin sections were performed using a Reichert Jung Ultra-cut E ultra-microtome (Leica Microsystems, Nanterre, France) equipped with a diamond knife. […] Images were recorded on Kodak SO163 film (Sigma Aldrich, Saint-Quentin Fallavier, France). […]
# “R” C. albicans = assay: Transmission electron microscopy of treated cells; type: cell-based, Candida albicans; conditions: 1 × MIC and 10 × MIC, 1 h at 37 °C
# Procedure: as §4, §5
# [3] = Clavispora lusitaniae, read-out: MIC
# [4] = Candida albicans, read-out: MIC
# [5] = Nakaseomyces glabratus, read-out: MIC
# [6] = Candida tropicalis, read-out: MIC
MIC (C. lusitaniae “S”; [3]) [µg/mL],MIC (C. albicans “S”; [4]) [µg/mL],MIC (C. glabrata “S”; [5]) [µg/mL],MIC (C. albicans “R”; [4]) [µg/mL],MIC (C. glabrata “R”; [5]) [µg/mL],MIC (C. tropicalis “R”; [6]) [µg/mL],MIC (C. tropicalis “S”; [6]) [µg/mL],MIC Candida glabrata “S” (Candida glabrata “S”) [µg/mL],MIC C. albicans “R” (Candida albicans “R”) [µg/mL],MIC Candida tropicalis “R” (Candida tropicalis “R”) [µg/mL],MIC Candida glabrata “R” (Candida glabrata “R”) [µg/mL],MIC Candida tropicalis “S” (Candida tropicalis “S”) [µg/mL],Compound,Susceptibility category (C. lusitaniae “S”),Susceptibility category (C. albicans “S”),Susceptibility category (C. glabrata “S”),Susceptibility category (C. albicans “R”),Susceptibility category (C. glabrata “R”),Susceptibility category (C. tropicalis “R”),Susceptibility category (C. tropicalis “S”),also measured
0.012,0.002,0.032,> 32,8,1.5,0.047,–,–,–,–,–,C[C@@H](c1ncncc1F)[C@](O)(Cn1cncn1)c1ccc(F)cc1F [Voriconazole],S,S,S,R,R,R,S,–
0.38,0.125,3,> 256,> 256,96,0.5,–,–,–,–,–,OC(Cn1cncn1)(Cn1cncn1)c1ccc(F)cc1F [Fluconazole],S,S,I,R,R,R,S,–

# Second part, the compound before the results:
Compound,MIC (C. lusitaniae “S”; [3]) [µg/mL],MIC (C. albicans “S”; [4]) [µg/mL],MIC (C. glabrata “S”; [5]) [µg/mL],MIC (C. albicans “R”; [4]) [µg/mL],MIC (C. glabrata “R”; [5]) [µg/mL],MIC (C. tropicalis “R”; [6]) [µg/mL],MIC (C. tropicalis “S”; [6]) [µg/mL],MIC Candida glabrata “S” (Candida glabrata “S”) [µg/mL],MIC C. albicans “R” (Candida albicans “R”) [µg/mL],MIC Candida tropicalis “R” (Candida tropicalis “R”) [µg/mL],MIC Candida glabrata “R” (Candida glabrata “R”) [µg/mL],MIC Candida tropicalis “S” (Candida tropicalis “S”) [µg/mL],Susceptibility category (C. lusitaniae “S”),Susceptibility category (C. albicans “S”),Susceptibility category (C. glabrata “S”),Susceptibility category (C. albicans “R”),Susceptibility category (C. glabrata “R”),Susceptibility category (C. tropicalis “R”),Susceptibility category (C. tropicalis “S”),also measured
C[C@@H]1[C@H](O)[C@@H](C)/C=C/C=C/C=C/C=C/C=C/C=C/C=C/[C@H](O[C@@H]2O[C@H](C)[C@@H](O)[C@H](N)[C@@H]2O)C[C@@H]2O[C@](O)(C[C@@H](O)C[C@@H](O)[C@H](O)CC[C@@H](O)C[C@@H](O)CC(=O)O[C@H]1C)C[C@H](O)[C@H]2C(=O)O [Amphotericin B],0.75,0.19,0.125,0.125,0.5,0.125,0.125,–,–,–,–,–,S,S,S,S,S,S,S,–
CSCC[C@H](NC(=O)[C@H](CO)NC(=O)[C@@H](N)CO)C(=O)N[C@@H](CCCCN)C(=O)N[C@@H](CC(C)C)C(=O)N[C@@H](CO)C(=O)N[C@@H](Cc1ccccc1)C(=O)N[C@@H](CCCNC(=N)N)C(=O)N[C@@H](C)C(=O)N[C@@H](CCCNC(=N)N)C(=O)N[C@@H](C)C(=O)N[C@@H](Cc1ccc(O)cc1)C(=O)NCC(=O)N[C@@H](Cc1ccccc1)C(=O)N[C@@H](CCCNC(=N)N)C(=O)NCC(=O)N1CCC[C@H]1C(=O)NCC(=O)N1CCC[C@H]1C(=O)N[C@@H](CCC(N)=O)C(=O)N[C@@H](CC(C)C)C(=O)O [hCts] (H-SSMKLSFRARAYGFRGPGPQL-OH),–,–,–,–,–,–,–,>240,>240,>240,>240,>240,–,–,–,–,–,–,–,MIC C. albicans “S” [1]: >240 µg/mL
Caspofungin,–,–,–,–,–,–,–,–,–,–,–,–,S,S,I,S,I,S,S,MIC (C. lusitaniae “S”): 0.125 µg/mL; MIC (C. albicans “S”): 0.094 µg/mL; MIC (C. glabrata “S”): 0.25 µg/mL; MIC (C. albicans “R”): 0.047 µg/mL; MIC (C. glabrata “R”): 0.25 µg/mL; MIC (C. tropicalis “R”): 0.125 µg/mL; MIC (C. tropicalis “S”): 0.125 µg/mL
CSCC[C@@H](NC(=O)[C@@H](CO)NC(=O)[C@H](N)CCCNC(=N)N)C(=O)N[C@H](CCCNC(=N)N)C(=O)N[C@H](CC(C)C)C(=O)N[C@H](CO)C(=O)N[C@H](Cc1ccccc1)C(=O)N[C@H](CCCNC(=N)N)C(=O)N[C@H](C)C(=O)N[C@H](CCCNC(=N)N)C(=O)NCC(=O)N[C@H](Cc1ccc(O)cc1)C(=O)NCC(=O)N[C@H](Cc1ccccc1)C(=O)N[C@H](CCCNC(=N)N)C(=O)O [Peptide P1] (H-[dR][dS][dM][dR][dL][dS][dF][dR][dA][dR]G[dY]G[dF][dR]-OH; N-terminus and C-terminus assumed),–,–,–,–,–,–,–,13.4,9.6,2.0,15.0,8.1,–,–,–,–,–,–,–,"MIC C. albicans “S” (as stated in discussion) ([2]; peptide alone, same figures as the * values of Tables 2 and 3): 5.5 µM; MIC C. albicans “S” [2]: 5.5 * µg/mL; MIC C. albicans “S” ([2]; listed as D-form of bCtl): 5.5 µg/mL; TEM observation (“S” C. albicans): fungal membrane lysis; TEM observation (“R” C. albicans): fungal membrane lysis"

# Source: article PMC8876135, “The Catestatin-Derived Peptides Are New Actors to Fight the Development of Oral Candidosis” (International Journal of Molecular Sciences, 2022)
